# Counter-ions that a name gives are not always drawn.
# Experiments:
# Assay type in all cases: cell-based
# [1] = test system: human leukocytes (basophils); test: Inhibition of histamine release from human leukocytes (basophils), Procedure A; conditions: Leukocyte, 1 h, rabbit anti-human IgE, 37° C., 60 minutes, (d) No response detected at highest dose indicated, read-out: In Vitro Inhibition of Histamine Release IC50, Procedure A
# Method: A. Procedure for Determining Inhibition of Histamine Release from Human Leukocytes (Basophils) 1. Separation of Leukocytes: A modification of the method of L. Lichtenstein and A. Osler, J. Exp. Med. 120, 507 (1964) is used. Heparinized human blood (80-100 ml) is mixed with 20 ml of saline (0.2%) containing 0.6 gm of dextrose and 1.2 gm dextran in propylene centrifuge tubes. The mixture is kept at ambient temperature for 60-90 minutes to allow the separation of erythrocytes from the platelet-leukocyte-rich supernate. The supernate is removed and centrifuged for 8 minutes at 110×g in cold. The leukocyte pellet is washed twice with Tris buffer and finally suspended in 150-180 ml Tris-ACM buffer at 1-2×10^6 cells/ml. 2. Reaction Mixture: The reaction is carried out in 12×75 mm plastic tubes at a total volume of […]. The reaction medium includes 0.05 ml rabbit anti-human IgE (the antigen), 0.2 ml of the test compound in water at concentrations ranging from 10-100 μM, and 0.1 ml of the leukocyte suspension. The reaction mixture is incubated in a 37° C. shaking water bath for 60 minutes. Upon completion of the reaction, the tubes are centrifuged and the supernatants collected. The protein is removed from the supernatants by precipitation with 0.2 ml of 8% perchloric acid. 3. Histamine Assay: Histamine release is measured by the automated fluorometric method of W. Siraganian and W. Hook in Chapter 102 of the Manual of Clinical Immunology, 2nd Edition, edited by R. Rose and H. Friedman, published by the American Society for Microbiology, Washington, D.C. 1980. Percent inhibition is calculated as follows: [formula] The concentration which causes a 50 percent inhibition (IC50) of histamine release is interpolated from a plot of percent inhibition versus logarithm of drug concentration.
# [2] = test system: rat peritoneal mast cells; test: Inhibition of histamine release from rat peritoneal mast cells, Procedure B; conditions: Mast cell, 1 h, sheep anti-rat IgE or ovalbumin, 37° C., 60 minutes, (d) No response detected at highest dose indicated, read-out: In Vitro Inhibition of Histamine Release IC50, Procedure B
# Method: B. Procedure for Determining Inhibition of Histamine Release from Rat Peritoneal Mast Cells 1. Harvest of Peritoneal Mast Cells: After the rats are sacrificed with ether, 20 ml of Minimum Essential Medium (MEM) containing 20 units/ml heparin is injected into the peritoneum. The abdomen is massaged for one minute and the lavage fluid collected. The peritoneal cells are centrifuged at 1800 rpm for 8 minutes in cold. After two washes with Tris A buffer, the cells are resuspended in Tris ACM buffer at 2-4×10^6 cells/ml. 2. Reaction Mixture: The reaction is carried out in 12×75 mm plastic tubes at a total volume of 1.25 ml. The reaction mixture includes 0.5 ml (10-1000 μg) sheep anti-rat IgE or ovalbumin, 0.2 ml of the test compound in water at concentrations ranging from 10-1000 μM, […] phosphatidylserine solution (20-60 μg to each tube), and 0.5 ml of cell suspension. The reaction mixture is incubated in a 37° C. shaking water bath for 60 minutes. Upon completion of the reaction, the tubes are centrifuged and the supernatants collected. The protein is removed from the supernatants by precipitation with 0.2 ml of 8% perchloric acid. 3. Histamine Assay: Histamine release is measured by the automated fluorometric method of Siraganian, supra. The concentration which causes a 50% inhibition (IC50) of histamine release is computed as in Part A.
# [3] = test system: guinea pig basophils; test: Inhibition of histamine release from guinea pig basophils, Procedure C; conditions: Cavia porcellus, 1 h, ovalbumin-sensitized, 37° C., 60 minutes, read-out: In Vitro Inhibition of Histamine Release IC50, Procedure C
# Method: C. Procedure for Determining Inhibition of Histamine Release from Guinea Pig Basophils 1. In Vivo Sensitization: Male Hartley guinea pigs (200-300 gms) are immunized on day 0 with two 0.05 ml intradermal injections of 200 μg ovalbumin. Sensitized basophils are available between days 13-25 post-sensitization. This mode of sensitization favors IgE response. 2. Separation of Leukocytes: The method of Lett-Brown et al., Int. Arch. Allergy, Appl. Immun. 64, 241 (1981) is used. Animals are anesthetized with ether and are bled via cardiac puncture with plastic syringes containing sufficient EDTA to provide a final concentration of 10 mM. One part of 3% gelatin in saline at 37° C. is mixed with two parts of blood in a 16×150 mm tube. The cells are allowed to sediment at a 30° angle for 45 minutes in a 37° C. water bath. The leukocyte-rich plasma is collected and centrifuged at 150×g for 30 minutes at room temperature. The pelleted cells are washed in Hepes-buffered saline (HG) containing 4 mM EDTA and resuspended in Hepes-buffered saline containing Mg^++ and Ca^++ (HGCM) at 4-5×10^6 cells/ml. 3. Reaction Mixture: The reaction is carried out in 12×75 mm plastic tubes and a total volume of 1.2 ml which includes 0.5 ml of antigen, 0.2 ml of drug solution at concentrations ranging from 10-1000 μM and 0.5 ml of prewashed cell suspension. The reaction mixture is incubated in a 37° C. shaking water bath for 60 minutes. Upon completion of the reaction, the tubes are centrifuged and the supernatants collected. The protein is removed from the supernatants by precipitation with 0.2 ml of 8% perchloric acid. 4. Histamine Assay: Histamine release is measured by the automated fluorometric method of Siraganian, supra. The concentration which causes a 50 percent inhibition of Histamine release is computed as in Part A.
SMILES,IC50 [1],IC50 [2],IC50 [3]
"Clc1cccc(CN2CCN(CCCN3CCN(Cc4cccc(Cl)c4)CC3)CC2)c1 [Example 23, 1,3-Bis[4-(3-chlorobenzyl)-1-piperazinyl]propane dihydrochloride monohydrate]",14 µM,,
"O=C(CN1CCN(CCCN2CCN(CC(=O)c3ccccc3)CC2)CC1)c1ccccc1 [Example 12, 1,3-Bis(4-phenacyl-1-piperazinyl)propane tetrahydrochloride monohydrate]",800 µM,,
"Clc1ccc(CN2CCN(CCCCN3CCN(Cc4ccc(Cl)cc4)CC3)CC2)cc1 [Example 3, 1,4-Bis[4-(4-chlorobenzyl)-1-piperazinyl]butane hemihydrate]",24 µM,,
"Oc1ccc(CN2CCN(CCCN3CCN(Cc4ccc(O)cc4)CC3)CC2)cc1 [Example 26, 1,3-Bis[4-(4-hydroxybenzyl)-1-piperazinyl]propane]",> 1000 µM,,
"c1ccc(CN2CCN(CCCN3CCN(Cc4ccccc4)CC3)CC2)cc1 [Example 4, 1,3-Bis(4-benzyl-1-piperazinyl)propane tetrahydrochloride]",53 µM,,
"O=C(CN1CCN(CCCN2CCN(Cc3ccc(Cl)cc3)CC2)CC1)c1ccccc1 [Example 10, 1-[4-(4-Chlorobenzyl)-1-piperazinyl]-3-(4-phenacyl-1-piperazinyl)propane tetrahydrochloride monohydrate]",3 µM,,
"OC(CN1CCN(Cc2ccc(Cl)cc2)CC1)CN1CCN(Cc2ccc(Cl)cc2)CC1 [Example 2, 1,3-Bis[4-(4-chlorobenzyl)-1-piperazinyl]-2-hydroxypropane]",12 µM,80 µM,23 µM
"Clc1ccc(CCCCN2CCN(CCCN3CCN(CCCCc4ccc(Cl)cc4)CC3)CC2)cc1 [Example 29, 1,3-Bis[4-(4-{4-chlorophenyl}butyl)-1-piperazinyl]propane tetrahydrochloride]",2 µM,,
"Clc1ccccc1CN1CCN(CCCN2CCN(Cc3ccccc3Cl)CC2)CC1 [Example 21, 1,3-Bis[4-(2-chlorobenzyl)-1-piperazinyl]propane tetrahydrochloride]",14 µM,,
"OC(CN1CCN(CCCN2CCN(Cc3ccc(Cl)cc3)CC2)CC1)c1ccccc1 (stereo not shown) [Example 11, 1-[4-(4-Chlorobenzyl)-1-piperazinyl]-3-[4-(2-hydroxy-2-phenylethyl)-1-piperazinyl]propane tetrahydrochloride]",20 µM,,
"O=C(CC(=O)N1CCN(Cc2ccc(Cl)cc2)CC1)N1CCN(Cc2ccc(Cl)cc2)CC1 [Example 15, 1,3-Bis[4-(4-chlorobenzyl)-1-piperazinyl]-1,3-dioxopropane dihydrochloride monohydrate]",17 µM,10 µM,49 µM
"CC(CCN1CCN(Cc2ccc(Cl)cc2)CC1)N1CCN(Cc2ccc(Cl)cc2)CC1 (stereo not shown) [Example 7, 1,3-Bis[4-(4-chlorobenzyl)-1-piperazinyl]-1-methylpropane tetrahydrochloride hemihydrate]",4 µM,,
"CC1C(C)N(Cc2ccc(Cl)cc2)C(C)C(C)N1CCCN1C(C)C(C)N(Cc2ccc(Cl)cc2)C(C)C1C (stereo not shown) [Example 32, 1,3-bis[4-(4-chlorobenzyl)-2,3,5,6-tetramethyl-1-piperazinyl]propane tetrahydrochloride]",1000 µM,,
"Fc1ccc(CN2CCN(CCCN3CCN(Cc4ccc(F)cc4)CC3)CC2)cc1 [Example 5, 1,3-Bis[4-(4-fluorobenzyl)-1-piperazinyl]propane tetrahydrochloride]",45 µM,,760 µM
"CC(=O)Oc1ccc(CN2CCN(CCCN3CCN(Cc4ccc(OC(C)=O)cc4)CC3)CC2)cc1 [Example 30, 1,3-Bis[4-(4-acetoxybenzyl)-1-piperazinyl]propane]",> 1000 µM,,
"Clc1ccc(CN2CCN(CCCN3CCN(Cc4ccc(Cl)cc4)CC3)CC2)cc1 [Example 1, 1,3-Bis[4-(4-chlorobenzyl)-1-piperazinyl]propane tetrahydrochloride]",11 µM,2 µM,35 µM
"FC(F)(F)c1cc(CN2CCN(CCCN3CCN(Cc4ccc(Cl)c(C(F)(F)F)c4)CC3)CC2)ccc1Cl [Example 25, 1,3-Bis[4-(4-chloro-3-trifluoromethylbenzyl)-1-piperazinyl]propane tetrahydrochloride]",6 µM,,
"Cc1ccc(CN2CCN(CCCN3CCN(Cc4ccc(C)cc4)CC3)CC2)cc1 [Example 22, 1,3-Bis[4-(4-methylbenzyl)-1-piperazinyl]-propane tetrahydrochloride]",20 µM,,
"Clc1ccc(C(c2ccccc2)N2CCN(CCCN3CCN(C(c4ccccc4)c4ccc(Cl)cc4)CC3)CC2)cc1 (stereo not shown) [Example 8, 1,3-Bis[4-(4-chlorobenzhydryl)-1-piperazinyl]-propane dihydrochloride dihydrate]",> 1000 µM,> 100 µM,
"Clc1ccc(CN2CCN(CCCN3CCN(Cc4ccc(Cl)c(Cl)c4)CC3)CC2)cc1Cl [Example 20, 1,3-Bis[4-(3,4-dichlorobenzyl)-1-piperazinyl]-propane tetrahydrochloride]",3 µM,,
"O=C(CCN1CCN(Cc2ccc(Cl)cc2)CC1)N1CCN(Cc2ccc(Cl)cc2)CC1 [Example 6, 1,3-Bis[4-(4-chloro-benzyl)-1-piperazinyl]-1-oxo-propane trihydrochloride]",12 µM,,
"c1ccc(CCN2CCN(CCCN3CCN(CCc4ccccc4)CC3)CC2)cc1 [Example 14, 1,3-Bis(4-phenethyl-1-piperazinyl)propane dihydrochloride dihydrate]",28 µM,,
"CCCCOc1ccc(CN2CCN(CCCN3CCN(Cc4ccc(OCCCC)cc4)CC3)CC2)cc1 [Example 31, 1,3-Bis[4-(4-butoxybenzyl)-1-piperazinyl]propane tetrahydrochloride]",4 µM,,
"CC(c1ccccc1)N1CCN(CCCN2CCN(C(C)c3ccccc3)CC2)CC1 (stereo not shown) [Example 17, 1,3-Bis[4-(1-phenylethyl)-1-piperazinyl]-propane tetrahydrochloride]",80 µM,,
"Brc1ccc(CN2CCN(CCCN3CCN(Cc4ccc(Br)cc4)CC3)CC2)cc1 [Example 27, 1,3-Bis[4-(4-bromobenzyl)-1-piperazinyl]propane tetrahydrochloride]",3 µM,,
"OC(CN1CCN(CCCN2CCN(CC(O)c3ccccc3)CC2)CC1)c1ccccc1 (stereo not shown) [Example 13, 1,3-Bis[4-(2-phenyl-2-hydroxyethyl)-1-piperazinyl]propane tetrahydrochloride]",~1000 µM,,

# Reference: US4725597A, “Bis(piperazinyl or homopiperazinyl)alkanes” (Boehringer Ingelheim Ltd., priority 1984, dated 1988)
